According to patent publication US9085555B2, “Complement pathway modulators and uses thereof” (priority 2011, dated 2015):

Biological target: Factor D (Homo sapiens (Human), UniProt P00746)
Test: biochemical
Format: biochemical
Conditions: read-out: IC50

Factor D, sequence (P00746 26-253): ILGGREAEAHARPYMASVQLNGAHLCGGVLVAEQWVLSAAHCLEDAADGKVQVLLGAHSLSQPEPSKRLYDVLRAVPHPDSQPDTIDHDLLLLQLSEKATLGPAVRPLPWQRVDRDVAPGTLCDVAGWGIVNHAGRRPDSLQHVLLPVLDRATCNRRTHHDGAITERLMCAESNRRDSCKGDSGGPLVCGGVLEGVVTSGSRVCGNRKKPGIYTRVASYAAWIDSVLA

Compound | IC50
CO[C@H]1[C@@H](C(=O)NCc2cccc(Cl)c2F)N(C(=O)Cn2nc(C(C)=O)c3ccccc32)C[C@@H]1F [Example 680, (2S,3S,4S)-1-[2-(3-Acetyl-indazol-1-yl)-acetyl]-4-fluoro-3-methoxy-pyrrolidine-2-carboxylic acid 3-chloro-2-fluoro-benzylamide] | 16 nM
(S)-1-[2-(3-Formyl-indol-1-yl)- acetyl]-pyrrolidine-2- carboxylic acid (3-trifluoro- methoxy-phenyl)-amide [Example 559] | 15700 nM
CC(C)(C)c1cccc(NC(=O)[C@@H]2CC3CC3N2C(=O)Nc2cn(C(N)=O)c3ccccc23)c1 (stereo partly drawn) [Example 330, (1R,3S,5R)-2-Aza-bicyclo[3.1.0]hexane-2,3-dicarboxylic acid 3-[(3-tert-butyl-phenyl)-amide] 2-[(1-carbamoyl-1H-indol-3-yl)-amide]] | 250 nM
COc1ccc(F)c(F)c1CNC(=O)[C@@H]1SCCN1C(=O)Nc1cn(C(N)=O)c2ccccc12 [Example 262, (S)-Thiazolidine-2,3-dicarboxylic acid 3-[(1-carbamoyl-1H-indol-3-yl)-amide] 2-(2,3-difluoro-6-methoxy-benzylamide)] | 200 nM
CN(C)CCNC(=O)c1cc(Cl)c(F)c(CNC(=O)[C@@H]2C[C@@H](F)CN2C(=O)Nc2cn(C(N)=O)c3ccccc23)c1 [Example 154, (2S,4R)-4-Fluoro-pyrrolidine-1,2-dicarboxylic acid 1-[(1-carbamoyl-1H-indol-3-yl)-amide] 2-[3-chloro-5-(2-dimethylamino-ethyl-carbamoyl)-2-fluoro-benzylamide]] | 1370 nM
CC(=O)c1cn(CC(=O)N2[C@@H]3C[C@@H]3C[C@H]2C(=O)NCc2cccc(Cl)c2F)c2cnc(C)cc12 [Example 646, (1R,3S,5R)-2-[2-(3-Acetyl-5-methyl-pyrrolo[2,3-c]pyridin-1-yl)-acetyl]-2-aza-bicyclo [3.1.0]hexane-3-carboxylic acid 3-chloro-2-fluoro-benzylamide] | 12 nM
NC(=O)c1cn(CC(=O)N2C[C@H](F)C[C@H]2C(=O)NCc2cccc(Cl)c2F)c2c(Cl)cccc12 [Example 489, 7-Chloro-1-{2-[(2S,4R)-2-(3-chloro-2-fluoro-benzylcarbamoyl)-4-fluoro-pyrrolidin-1-yl]-2-oxo-ethyl}-1H-indole-3-carboxylic acid amide] | 124 nM
COC(=O)c1ccc2c(C(C)=O)cn(CC(=O)N3[C@@H]4C[C@@H]4C[C@H]3C(=O)NCc3cccc(Cl)c3F)c2n1 [Example 689, 3-Acetyl-1-{2-[(1R,3S,5R)-3-(3-chloro-2-fluoro-benzylcarbamoyl)-2-aza-bicyclo[3.1.0]hex-2-yl]-2-oxo-ethyl}-1H-pyrrolo[2,3-b] pyridine-6-carboxylic acid methyl ester] | 156 nM
NC(=O)n1cc(NC(=O)N2CC[C@H](N)[C@H]2C(=O)NCc2cccc(Cl)c2)c2ccccc21 [Example 421, 2S,3S)-3-Amino-pyrrolidine-1,2-dicarboxylic acid 1-[(1-carbamoyl-1H-indol-3-yl)-amide]2-(3-chloro-benzylamide] | 9300 nM
C=CCOc1ccc2c(c1)c(NC(=O)N1CCC[C@H]1C(=O)Nc1cccc(OC(F)(F)F)c1)cn2C(N)=O [Example 335, (S)-Pyrrolidine-1,2-dicarboxylic acid 1-[(5-allyloxy-1-carbamoyl-1H-indol-3-yl)-amide] 2-[(3-trifluoromethoxy-phenyl)-amide]] | 550 nM
NC[C@]1(F)C[C@@H](C(=O)NCc2cccc(Cl)c2F)N(C(=O)Nc2cn(C(N)=O)c3ccccc23)C1 [Example 408, 2S,4R)-4-Aminomethyl-4-fluoro-pyrrolidine-1,2-dicarboxylic acid 1-[(1-carbamoyl-1H-indol-3-yl)-amide]2-(3-chloro-2-fluoro-benzylamide] | 1400 nM
NC(=O)n1cc(NC(=O)N2C[C@H]3C[C@H]3[C@H]2C(=O)Nc2cccc(Br)n2)c2ccccc21 [Example 763, (1R,2S,5S)-3-Aza-bicyclo[3.1.0]hexane-2,3-dicarboxylic acid 2-[(6-bromo-pyridin-2-yl)-amide]3-[(1-carbamoyl-1H-indol-3-yl)-amide]] | 14 nM
CN(C)C[C@H]1C[C@@H](C(=O)NCc2cccc(Cl)c2F)N(C(=O)Nc2cn(C(N)=O)c3ccccc23)C1 [Example 406, 2S,4R)-4-Dimethylaminomethyl-pyrrolidine-1,2-dicarboxylic acid 1-[(1-carbamoyl-1H-indol-3-yl)-amide]2-(3-chloro-2-fluoro-benzylamide] | 150 nM
NC(=O)n1cc(NC(=O)N2C[C@H](F)C[C@H]2C(=O)NCc2ccncc2F)c2ccccc21 [Example 230, (2S,4R)-4-Fluoro-pyrrolidine-1,2-dicarboxylic acid 1-[(1-carbamoyl-1H-indol-3-yl)-amide] 2-[(3-fluoro-pyridin-4-ylmethyl)-amide]] | 2550 nM
NC(=O)n1cc(NC(=O)N2C[C@@H](N)C[C@H]2C(=O)NCc2cccc(-n3cccc3)c2)c2ccccc21 [Example 40, (2S,4S)-4-Amino-pyrrolidine-1,2-dicarboxylic acid 1-[(1-carbamoyl-1H-indol-3-yl)-amide] 2-(3-pyrrol-1-yl-benzylamide)] | 11200 nM
CC(=O)c1cn(CC(=O)N2[C@@H]3C[C@@H]3C[C@H]2C(=O)NCc2cccc(Cl)c2F)c2cc(C(=O)O)ccc12 [Example 598, 3-Acetyl-1-{2-[(1R,3S,5R)-3-(3-chloro-2-fluoro-benzylcarbamoyl)-2-aza-bicyclo[3.1.0]hex-2-yl]-2-oxo-ethyl}-1H-indole-6-carboxylic acid] | 14 nM
NC(=O)c1nn(CC(=O)N2[C@H](C(=O)Nc3cccc(Br)c3F)C[C@@]3(CO)C[C@@H]23)c2ccccc12 [Example 759, 1-{2-[(1R,3S,5S)-3-(3-Bromo-2-fluoro-phenylcarbamoyl)-5-hydroxymethyl-2-aza-bicyclo[3.1.0]hex-2-yl]-2-oxo-ethyl}-1H-indazole-3-carboxylic acid amide] | 9 nM
COCCOc1ccc2c(c1)c(NC(=O)N1C3CC3C[C@H]1C(=O)NCc1cccc(Cl)c1F)cn2C(N)=O (stereo partly drawn) [Example 162, (1R,3S,5R)-2-Aza-bicyclo[3.1.0]hexane-2,3-dicarboxylic acid 2-{[1-carbamoyl-5-(2-methoxy-ethoxy)-1H-indol-3-yl]-amide} 3-(3-chloro-2-fluoro-benzylamide)] | 5 nM
CNC(=O)n1cc(NC(=O)N2[C@@H]3C[C@@H]3C[C@H]2C(=O)NCc2cccc(Cl)c2F)c2ccccc21 [Example 130, (1R,3S,5R)-2-Azabicyclo[3.1.0]hexane-2,3-dicarboxylic acid 3-(3-chloro-2-fluoro-benzylamide) 2-[(1-methylcarbamoyl-1H-indol-3-yl)-amide]] | 54 nM
NC(=O)c1nn(CC(=O)N2[C@@H]3C[C@@H]3C[C@H]2C(=O)Nc2cccc(OC(F)(F)F)c2F)c2nnccc12 [Example 720, 1-(2-((1R,3S,5R)-3-((2-Fluoro-3-(trifluoromethoxy)phenyl)carbamoyl)-2-azabicyclo[3.1.0]hexan-2-yl)-2-oxoethyl)-1H-pyrazolo[3,4-c] pyridazine-3-carboxamide] | 140 nM
COC[C@@]12C[C@@H](C(=O)NCc3cccc(Cl)c3F)N(C(=O)Cn3cc(C(C)=O)c4cccnc43)[C@@H]1C2 [Example 490, (1R,3S,5S)-2-[2-(3-Acetyl-pyrrolo[2,3-b]pyridin-1-yl)-acetyl]-5-methoxymethyl-2-aza-bicyclo[3.1.0]hexane-3-carboxylic acid 3-chloro-2-fluoro-benzylamide] | 214 nM
CO[C@H]1[C@@H](C(=O)NCc2cccc(Cl)c2F)N(C(=O)Nc2cn(C(N)=O)c3ccccc23)C[C@@H]1F [Example 204, (2S,3S,4S)-4-Fluoro-3-methoxy-pyrrolidine-1,2-dicarboxylic acid 1-[(1-carbamoyl-1H-indol-3-yl)-amide] 2-(3-chloro-2-fluoro-benzylamide)] | 7 nM
NC(=O)n1cc(NC(=O)N2C[C@H]3C[C@H]3[C@H]2C(=O)NCc2cccc(Cl)c2F)c2ccccc21 [Example 210, (1R,2S,5S)-3-Aza-bicyclo[3.1.0]hexane-2,3-dicarboxylic acid 3-[(1-carbamoyl-1H-indol-3-yl)-amide] 2-(3-chloro-2-fluoro-benzylamide)] | 22 nM
NC(=O)n1cc(NC(=O)N2CC[C@@H](F)[C@H]2C(=O)NCc2cccc(Cl)c2)c2ccccc21 [Example 349, 2R,3R)-3-Fluoro-pyrrolidine-1,2-dicarboxylic acid 1-[(1-carbamoyl-1H-indol-3-yl)-amide]2-(3-chloro-benzylamide] | 150 nM
NC(=O)n1cc(CC(=O)N2C[C@H]3C[C@H]3[C@H]2C(=O)N[C@H](CO)c2cccc(Cl)c2F)c2ccccc21 [Example 463, 3-(2-{(1R,2S,5S)-2-[(S)-1-(3-Chloro-2-fluoro-phenyl)-2-hydroxy-ethylcarbamoyl]-3-azabicyclo[3.1.0]hex-3-yl}-2-oxo-ethyl)-indole-1-carboxylic acid amide] | 3110 nM
CO[C@H]1[C@@H](C(=O)N[C@@H](C)c2cccc(Cl)c2F)N(C(=O)Cn2cc(C(C)=O)c3ccccc32)C[C@@H]1F [Example 571, (2S,3S,4S)-1-[2-(3-Acetyl-indol-1-yl)-acetyl]-4-fluoro-3-methoxy-pyrrolidine-2-carboxylic acid [(S)-1-(3-chloro-2-fluoro-phenyl)-ethyl]-amide] | 99 nM
NC(=O)c1cn(CC(=O)N2C[C@H](F)C[C@H]2C(=O)NCc2cccc(Cl)c2F)c2ccccc12 [Example 476, 1-{2-[(2S,4R)-2-(3-Chloro-2-fluoro-benzylcarbamoyl)-4-fluoro-pyrrolidin-1-yl]-2-oxo-ethyl}-1H-indole-3-carboxylic acid amide] | 33 nM
CC(=O)c1cn(CC(=O)N2C[C@H](F)C[C@H]2C(=O)NCc2cc(C#N)cc(Cl)c2F)c2ccccc12 [Example 498, (2S,4R)-1-[2-(3-Acetyl-indol-1-yl)-acetyl]-4-fluoro-pyrrolidine-2-carboxylic acid 3-chloro-5-cyano-2-fluoro-benzylamide] | 692 nM
NC(=O)n1cc(NC(=O)N2C[C@H](F)C[C@H]2C(=O)N[C@H](c2cccc(Cl)c2)C(F)(F)F)c2ccccc21 [Example 319, (2S,4R)-4-Fluoro-pyrrolidine-1,2-dicarboxylic acid 1-[(1-carbamoyl-1H-indol-3-yl)-amide] 2-{[(R)-1-(3-chloro-phenyl)-2,2,2-trifluoro-ethyl]-amide}] | 548 nM
